One test concerns OVCAR3. Briefly: Cell proliferation (CyQUANT) OVCAR3. The test is classed as cell-based. Conditions: OVCAR3, 7 days, read-out: Anti-proliferation assay: IC50 (nM) [Cell Line: OVCAR3]. The protocol: (§1) Cancer cell lines, namely, OVCAR3, TOV21G were seeded onto 96 well cell culture plates at a density of 2500, 1000 or 3000 cells/well, respectively and cultured overnight. Cells treated with test compounds at 3-fold dose titration for 7 days at maximum final DMSO concentration of 0.01%. The CyQUANT® Cell Proliferation Assay, a highly sensitive fluorescence-based method for quantifying cells and assessing cell proliferation and cytotoxicity was employed, following manufacturer's procedure (ThermnoFisher, Cataloge #C35012). Plates were scanned with a laser-based Acumen Cellistra instrument by TTP LabTech at Ex/Em 480/520 nm. % Inhibition is calculated based on DMSO control wells on the same plate (ie, DMSO wells have 100% growth and 0% growth inhibition).

In a further test the target is CDK1/cyclinB (Homo sapiens, UniProt P06493). In words: In vitro kinase TR-FRET assay CDK1/cyclinB. Conditions: enzyme 0.3 nM, ATP 56 μM. In kind it is biochemical. As for the experimental part:
(§2) In vitro kinase TR-FRET assays: CDK2/CycA2, CDK2/CycE1, CDK1/cyclinB and GSK3β
(§3) The test compounds were prepared as 10 mM stock solution in 100% DMSO. The stock solution was then serially diluted 3-fold in 100% DMSO to 10 concentrations. 200 nL of each diluted compound solution was transferred to 384-well plate in duplicate. To each well, 5 uL of enzyme and ATP mixture solution containing enzyme CDK2/CycA2, CDK2/CycE1, CDK1/cyclinB, or GSK30 (final concentrations 3 nM, 0.6 nM, 0.3 nM, 0.6 nM, respectively) and ATP (final concentrations 27 μM, 82 μM, 56 μM, 7.6 μM, respectively) in the assay buffer (50 mM HEPES, pH7.5, 10 mM MgCl2, 1 mM DTT, 0.01% BSA, 0.01% Triton X-100). For negative control, 5 uL of assay buffer was added instead. The plate was incubated at room temperature for 10 min. 5 uL of peptide solution containing ULight-4E-BP1 peptide (final concentrations 50 nM) in the assay buffer was subsequently added into each well to initiate the reaction. By incubation at room temperature for 1 hour, 10 uL of 2 nM Eu-anti-phospho-4E BP1 antibody was then added for detection. After one hour incubation at room temperature, all samples were subjected to read the TR-FRET signal on Envision with excitation at 340 nm and emission fluorescence at 615 nm and 665 nm. IC50 values were then calculated by plotting dose-response curves and then using the XLfit application in Excel software.
(In general: In TR-FRET formats the signal depends on donor and acceptor labels being close together.)

For a further test, the target named is CDK2/CycE1 (Homo sapiens, UniProt P24941). Briefly: In vitro kinase TR-FRET assay CDK2/CycE1. The test is classed as biochemical. Conditions: enzyme 0.6 nM, ATP 82 μM, read-out: CDK2 cyclinE1 activity assay: IC50. The protocol: as §2, §3
The test system of another test is TOV21G. In words: Cell proliferation (CyQUANT) TOV21G. In kind it is cell-based. The note with it: 7 days, read-out: Anti-proliferation assay: IC50 (nM) [Cell Line: TOV21G]. As for the experimental part:
as §1

The target of a further test is CDK2/CycA2 (Homo sapiens, UniProt P24941). In words: In vitro kinase TR-FRET assay CDK2/CycA2. The note with it: enzyme 3 nM, ATP 27 μM, read-out: CDK2 cyclinA2 activity assay: IC50. In kind it is biochemical. The protocol: as §2, §3
A further test deals with GSK3β (Homo sapiens, UniProt P49841). Briefly: In vitro kinase TR-FRET assay GSK3β. In kind it is biochemical. Conditions: enzyme 0.6 nM, ATP 7.6 μM. As for the experimental part:
as §2, §3

IC50 data for 15 molecules are collected here from US20240246950A1, “Anilino-Pyrazole Derivatives, Compositions and Methods Thereof” (Ensem Therapeutics, priority 2022, published 2024).

Where two headings read alike, the source gives them in different places. Where only a bound is given, the exact number is not on record here.

Sequence of CDK1/cyclinB (P06493 whole entry): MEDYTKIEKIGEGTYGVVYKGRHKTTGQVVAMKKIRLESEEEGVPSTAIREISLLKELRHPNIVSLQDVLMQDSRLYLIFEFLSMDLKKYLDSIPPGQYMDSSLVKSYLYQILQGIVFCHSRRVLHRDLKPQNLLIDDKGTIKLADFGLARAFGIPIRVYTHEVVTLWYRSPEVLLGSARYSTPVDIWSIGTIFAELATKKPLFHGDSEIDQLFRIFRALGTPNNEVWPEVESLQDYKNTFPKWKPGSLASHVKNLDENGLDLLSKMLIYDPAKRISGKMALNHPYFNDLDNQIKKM
Sequence of CDK1/cyclinB (P14635 whole entry partner): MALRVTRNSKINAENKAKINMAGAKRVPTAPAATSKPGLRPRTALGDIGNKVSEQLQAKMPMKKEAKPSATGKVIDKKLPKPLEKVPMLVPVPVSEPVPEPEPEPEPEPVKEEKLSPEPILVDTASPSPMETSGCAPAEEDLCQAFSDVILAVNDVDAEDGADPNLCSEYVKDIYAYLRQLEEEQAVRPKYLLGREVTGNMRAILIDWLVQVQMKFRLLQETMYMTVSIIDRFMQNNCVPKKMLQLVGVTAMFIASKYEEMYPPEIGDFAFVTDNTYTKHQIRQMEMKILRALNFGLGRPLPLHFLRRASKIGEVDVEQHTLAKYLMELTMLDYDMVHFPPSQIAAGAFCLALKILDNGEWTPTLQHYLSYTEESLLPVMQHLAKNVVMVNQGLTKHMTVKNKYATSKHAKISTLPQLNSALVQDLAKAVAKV
Sequence of GSK3β (P49841 whole entry, species assumed): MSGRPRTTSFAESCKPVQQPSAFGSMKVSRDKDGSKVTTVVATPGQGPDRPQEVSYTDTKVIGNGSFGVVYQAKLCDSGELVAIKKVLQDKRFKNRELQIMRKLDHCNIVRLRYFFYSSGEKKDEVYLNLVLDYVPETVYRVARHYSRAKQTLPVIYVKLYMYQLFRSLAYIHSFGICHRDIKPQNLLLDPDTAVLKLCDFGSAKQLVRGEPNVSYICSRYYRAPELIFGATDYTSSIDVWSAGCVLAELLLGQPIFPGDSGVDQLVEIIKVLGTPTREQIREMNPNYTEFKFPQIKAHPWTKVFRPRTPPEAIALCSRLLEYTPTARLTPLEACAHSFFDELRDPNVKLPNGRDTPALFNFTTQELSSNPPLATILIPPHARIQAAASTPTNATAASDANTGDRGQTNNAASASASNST

As for `CC(C)NC(=O)O[C@@H]1CC[C@H](c2cc(Nc3cccc4c3CNS4(=O)=O)n[nH]2)C1` [Example 46, (1R,3S)-3-(3-((1,1-dioxido-2,3-dihydrobenzo[d]isothiazol-4-yl)amino)-1H-pyrazol-5-yl)cyclopentyl isopropylcarbamate], the IC50 was not above 500 nM with OVCAR3 (Homo sapiens, OVCAR-3, 168 h); 50 to 500 nM on CDK1/cyclinB; less than 50 nM on CDK2/CycE1; 500 to 1000 nM with TOV21G (Homo sapiens, 168 h); less than 50 nM on CDK2/CycA2; 50 to 500 nM against GSK3β.
On to `CC(C)NC(=O)O[C@@H]1CC[C@H](c2cc(Nc3cccc4c3CCS4(=O)=O)n[nH]2)C1` [Example 36, (1R,3S)-3-(3-((1,1-dioxido-2,3-dihydrobenzo[b]thiophen-4-yl)amino)-1H-pyrazol-5-yl)cyclopentyl isopropylcarbamate], for which the IC50 was not above 500 nM in the test on OVCAR3 (Homo sapiens, OVCAR-3, 168 h); 50 to 500 nM against CDK1/cyclinB; less than 50 nM on CDK2/CycE1; not above 500 nM in the test with TOV21G (Homo sapiens, 168 h); less than 50 nM on CDK2/CycA2; 50 to 500 nM on GSK3β.
As to `CC(C)NC(=O)O[C@H]1CC[C@@H](c2cc(Nc3ccc4c(c3)CS(=O)(=O)C4)n[nH]2)CC1` [Example 33, (1s,4s)-4-(3-((2,2-dioxido-1,3-dihydrobenzo[c]thiophen-5-yl)amino)-1H-pyrazol-5-yl)cyclohexyl isopropylcarbamate], the IC50 was not above 500 nM in the test on OVCAR3 (Homo sapiens, OVCAR-3, 168 h); less than 50 nM on CDK1/cyclinB; less than 50 nM at CDK2/CycE1; not above 500 nM in the test on TOV21G (Homo sapiens, 168 h); less than 50 nM on CDK2/CycA2; more than 1000 nM on GSK3β.
With `CC(C)NC(=O)O[C@@H]1CC[C@H](c2cc(Nc3ccc4c(c3)C(C)(C)CS4(=O)=O)n[nH]2)C1` [Example 21, (1R,3S)-3-{5-[(3,3-dimethyl-1,1-dioxo-2,3-dihydro-1λ^6-benzothiophen-5-yl)amino]-2H-pyrazol-3-yl}cyclopentyl (prop-2-ylamino)methanoate], the IC50 is 500 to 1000 nM with OVCAR3 (Homo sapiens, OVCAR-3, 168 h); 50 to 500 nM at CDK1/cyclinB; less than 50 nM at CDK2/CycE1; not below 1000 nM in the test on TOV21G (Homo sapiens, 168 h); less than 50 nM on CDK2/CycA2; 50 to 500 nM at GSK3β.
For `CC(C)NC(=O)O[C@@H]1CC[C@H](c2cc(Nc3ccc4c(c3)S(=O)(=O)CC4)n[nH]2)C1` [Example 19, (1R,3S)-3-(3-((1,1-dioxido-2,3-dihydrobenzo[b]thiophen-6-yl)amino)-1H-pyrazol-5-yl)cyclopentyl isopropylcarbamate], the IC50 is not above 500 nM in the test on OVCAR3 (Homo sapiens, OVCAR-3, 168 h); 50 to 500 nM on CDK1/cyclinB; less than 50 nM on CDK2/CycE1; not above 500 nM in the test with TOV21G (Homo sapiens, 168 h); less than 50 nM on CDK2/CycA2; 50 to 500 nM at GSK3β.
`Cc1ccc(Nc2cc([C@H]3CC[C@@H](OC(=O)NC(C)C)C3)[nH]n2)c2c1S(=O)(=O)CC2` [Example 65, (1R,3S)-3-(3-((7-methyl-1,1-dioxido-2,3-dihydrobenzo[b]thiophen-4-yl)amino)-1H-pyrazol-5-yl)cyclopentyl isopropylcarbamate]: the IC50 was not above 500 nM in the test on OVCAR3 (Homo sapiens, OVCAR-3, 168 h); 50 to 500 nM against CDK1/cyclinB; less than 50 nM on CDK2/CycE1; 500 to 1000 nM in the test with TOV21G (Homo sapiens, 168 h); less than 50 nM at CDK2/CycA2; 50 to 500 nM against GSK3β.
Consider “(1s,4s)-4-{5-[(1,1-dioxo-2,3-dihydro-1λ^6-benzothiophen-5-yl)amino]-2H-pyrazol-3-yl}cyclohexyl (prop-2-ylamino)methanoate [Example 16]”, for which the IC50 with OVCAR3 was not above 500 nM; against CDK1/cyclinB, 50 to 500 nM; at CDK2/CycE1, less than 50 nM; with TOV21G, not below 1000 nM; at CDK2/CycA2 it was less than 50 nM; against GSK3β it was 500 to 1000 nM.
Regarding `CC(C)NC(=O)O[C@@H]1CC[C@H](c2cc(Nc3cccc4c3CCS(=O)(=O)N4)n[nH]2)C1` [Example 53, (1R,3S)-3-(3-((2,2-dioxido-3,4-dihydro-1H-benzo[c][1,2]thiazin-5-yl)amino)-1H-pyrazol-5-yl)cyclopentyl isopropylcarbamate], the IC50 is 500 to 1000 nM against CDK1/cyclinB, less than 50 nM on CDK2/CycE1, less than 50 nM at CDK2/CycA2 and more than 1000 nM at GSK3β.
For the molecule `Cc1c(Nc2ccc3c(c2)CS(=O)(=O)C3)n[nH]c1[C@H]1CC[C@@H](OC(=O)NC(C)C)C1` [Example 43, (1R,3S)-3-{5-[(2,2-dioxo-1,3-dihydro-2λ^6-benzo[c]thiophen-5-yl)amino]-4-methyl-2H-pyrazol-3-yl}cyclopentyl (prop-2-ylamino)methanoate], the IC50 on CDK1/cyclinB was more than 1000 nM; at CDK2/CycE1, 50 to 500 nM; on CDK2/CycA2 it was 50 to 500 nM; on GSK3β, more than 1000 nM.
As for `CC(C)NC(=O)O[C@@H]1CC[C@H](c2cc(Nc3cc4c(cn3)CCS4(=O)=O)n[nH]2)C1` [Example 72, (1R,3S)-3-{5-[(1,1-dioxo-2,3-dihydro-1λ^6-thieno[3,2-c]pyridin-6-yl)amino]-1H-pyrazol-3-yl}cyclopentyl (prop-2-ylamino)methanoate], the IC50 against CDK1/cyclinB is less than 50 nM; at CDK2/CycE1, less than 50 nM; at CDK2/CycA2, less than 50 nM; on GSK3β, more than 1000 nM.
Consider `CC(C)NC(=O)O[C@@H]1CC[C@H](c2cc(Nc3cc4c(cc3F)S(=O)(=O)CC4)n[nH]2)C1` [Example 54, (1R,3S)-3-(3-((6-fluoro-1,1-dioxido-2,3-dihydrobenzo[b]thiophen-5-yl)amino)-1H-pyrazol-5-yl)cyclopentyl isopropylcarbamate], for which the IC50 was more than 1000 nM against CDK1/cyclinB, less than 50 nM at CDK2/CycE1, less than 50 nM at CDK2/CycA2 and more than 1000 nM on GSK3β.
In the case of `CC(C)NC(=O)O[C@@H]1CC[C@H](c2cc(Nc3c(F)ccc4c3CCS4(=O)=O)n[nH]2)C1` [Example 52, (1R,3S)-3-(3-((5-fluoro-1,1-dioxido-2,3-dihydrobenzo[b]thiophen-4-yl)amino)-1H-pyrazol-5-yl)cyclopentyl isopropylcarbamate], the IC50 is more than 1000 nM at CDK1/cyclinB, less than 50 nM on CDK2/CycE1, 50 to 500 nM on CDK2/CycA2 and more than 1000 nM against GSK3β.
Take `CC(C)NC(=O)O[C@@H]1CC[C@H](c2cc(Nc3ccc4c(c3)N(C)C(=O)NS4(=O)=O)n[nH]2)C1` [Example 18, (1R,3S)-3-(3-((4-methyl-1,1-dioxido-3-oxo-3,4-dihydro-2H-benzo[e][1,2,4]thiadiazin-6-yl)amino)-1H-pyrazol-5-yl)cyclopentyl isopropylcarbamate]: the IC50 was 500 to 1000 nM against CDK1/cyclinB, less than 50 nM at CDK2/CycE1, less than 50 nM at CDK2/CycA2 and 50 to 500 nM on GSK3β.
Take `CC(C)NC(=O)O[C@@H]1CC[C@H](c2cc(Nc3cccc4c3S(=O)(=O)CC4)n[nH]2)C1` [Example 35, (1R,3S)-3-{5-[(1,1-dioxo-2,3-dihydro-1λ6-benzo[2,1-b]thiophen-7-yl)amino]-2H-pyrazol-3-yl}cyclopentyl (prop-2-ylamino)methanoate]: the IC50 on CDK1/cyclinB, on CDK2/CycE1, on CDK2/CycA2 and against GSK3β was more than 1000 nM in each case.
Consider `CC(C)NC(=O)O[C@@H]1CC[C@H](c2cc(Nc3ccc4c(c3)C(C)(C)NS4(=O)=O)n[nH]2)C1` [Example 13, (1R,3S)-3-(3-((3,3-dimethyl-1,1-dioxido-2,3-dihydrobenzo[d]isothiazol-5-yl)amino)-1H-pyrazol-5-yl)cyclopentyl isopropylcarbamate], for which the IC50 at CDK1/cyclinB was 50 to 500 nM; at CDK2/CycE1, less than 50 nM; on CDK2/CycA2, less than 50 nM; at GSK3β, 50 to 500 nM.
